According to ChEMBL document CHEMBL4196200 (J Med Chem, 2018):

Experiments:
[1] = biological target: T1, Vasopressin V1b receptor (Rattus norvegicus, UniProt P48974); assay: Displacement of [3H]AVP from V1B receptor in Wistar rat pituitary membranes incubated for 60 mins by microplate scintillation counting method; assay type: cell membranes
T1 sequence (P48974 whole entry): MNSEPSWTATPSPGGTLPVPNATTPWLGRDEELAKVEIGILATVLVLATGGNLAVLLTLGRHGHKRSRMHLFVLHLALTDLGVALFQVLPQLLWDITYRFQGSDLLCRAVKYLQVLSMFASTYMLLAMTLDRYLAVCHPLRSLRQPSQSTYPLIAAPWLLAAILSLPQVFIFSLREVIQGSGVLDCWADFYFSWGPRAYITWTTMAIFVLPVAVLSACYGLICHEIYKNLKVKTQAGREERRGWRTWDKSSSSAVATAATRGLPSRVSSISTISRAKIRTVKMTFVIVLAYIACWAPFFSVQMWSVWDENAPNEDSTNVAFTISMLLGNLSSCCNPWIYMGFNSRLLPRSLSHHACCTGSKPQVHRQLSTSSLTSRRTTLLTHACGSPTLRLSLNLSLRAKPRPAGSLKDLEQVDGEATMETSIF

[2] = biological target: T2, Oxytocin receptor (Homo sapiens, UniProt P30559); assay: Antagonist activity at human OTR receptor expressed in HEK293FT cells assessed as inhibition of LIT-001-induced response incubated for 30 mins by beta-arrestin recruitment assay; assay type: functional, cell-based
T2 sequence (P30559 whole entry): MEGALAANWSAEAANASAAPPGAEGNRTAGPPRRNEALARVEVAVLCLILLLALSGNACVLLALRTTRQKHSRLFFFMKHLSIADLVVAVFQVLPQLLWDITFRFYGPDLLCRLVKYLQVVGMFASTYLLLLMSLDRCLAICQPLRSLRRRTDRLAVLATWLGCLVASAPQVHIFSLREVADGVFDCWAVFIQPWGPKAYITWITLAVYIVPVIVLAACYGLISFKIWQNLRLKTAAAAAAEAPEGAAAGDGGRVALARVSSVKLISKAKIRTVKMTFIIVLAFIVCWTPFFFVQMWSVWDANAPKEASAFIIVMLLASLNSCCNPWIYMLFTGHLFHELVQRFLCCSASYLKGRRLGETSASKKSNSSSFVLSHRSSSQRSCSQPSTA

[3] = biological target: T2, Oxytocin receptor; assay: Antagonist activity at human OTR receptor expressed in HEK293FT cells assessed as inhibition of LIT-001-induced calcium release by Aequorin based assay; assay type: functional, cell-based
[4] = biological target: T3, Vasopressin V2 receptor (Homo sapiens, UniProt P30518); assay: Antagonist activity at human V2 receptor expressed in HEK293FT cells assessed as inhibition of […] response incubated for 30 mins by beta-arrestin recruitment assay; assay type: functional, cell-based
[5] = biological target: T3, Vasopressin V2 receptor; assay: Antagonist activity at human V2 receptor expressed in HEK293FT cells assessed as inhibition of AVP-induced calcium release by Aequorin based assay; assay type: functional, cell-based
[6] = biological target: T2, Oxytocin receptor; assay: Binding affinity to OTR receptor (unknown origin)
[7] = biological target: T3, Vasopressin V2 receptor; assay: Binding affinity to V2 receptor (unknown origin)
[8] = biological target: T4, Oxytocin receptor (Rattus norvegicus, UniProt P70536); assay: Antagonist activity at OXR receptor in rat uterus; assay type: functional
T4 sequence (P70536 whole entry): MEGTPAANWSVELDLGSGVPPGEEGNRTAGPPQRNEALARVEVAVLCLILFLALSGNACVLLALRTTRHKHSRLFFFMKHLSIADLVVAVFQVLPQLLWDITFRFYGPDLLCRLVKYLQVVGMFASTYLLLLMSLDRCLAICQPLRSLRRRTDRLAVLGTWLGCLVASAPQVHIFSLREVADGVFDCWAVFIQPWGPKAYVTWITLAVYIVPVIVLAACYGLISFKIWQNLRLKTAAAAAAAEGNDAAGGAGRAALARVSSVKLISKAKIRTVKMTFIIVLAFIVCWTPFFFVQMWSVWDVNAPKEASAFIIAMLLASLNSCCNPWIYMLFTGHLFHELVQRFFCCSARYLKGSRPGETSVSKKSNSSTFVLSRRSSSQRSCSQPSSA

[9] = biological target: T5, Vasopressin V1a receptor (Homo sapiens, UniProt P37288); assay: Agonist activity at human V1A receptor expressed in CHO cells assessed as increase in myo-inositol 1-phosphate accumulation at 1 uM by IP-One assay relative to AVP; assay type: functional, cell-based
Target sequence in this assay (P37288 whole entry, looked up): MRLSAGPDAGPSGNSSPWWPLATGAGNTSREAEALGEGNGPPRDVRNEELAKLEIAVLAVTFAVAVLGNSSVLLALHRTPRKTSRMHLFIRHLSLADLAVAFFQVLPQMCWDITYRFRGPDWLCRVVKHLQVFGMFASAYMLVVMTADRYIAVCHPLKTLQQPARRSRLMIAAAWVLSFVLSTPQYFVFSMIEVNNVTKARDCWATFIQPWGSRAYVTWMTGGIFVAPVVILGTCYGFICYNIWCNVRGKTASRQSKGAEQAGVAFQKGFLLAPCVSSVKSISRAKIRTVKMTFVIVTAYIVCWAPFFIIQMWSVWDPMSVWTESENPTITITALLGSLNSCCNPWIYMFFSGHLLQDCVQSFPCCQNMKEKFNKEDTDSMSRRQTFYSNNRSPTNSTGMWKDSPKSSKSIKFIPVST

[10] = biological target: T5, Vasopressin V1a receptor; assay: Binding affinity to V1A receptor (unknown origin)
Target sequence in this assay (P37288 whole entry): as the sequence (P37288 whole entry, looked up) above

[11] = biological target: T5, Vasopressin V1a receptor; assay: Antagonist activity at V1A receptor (unknown origin) by cAMP accumulation assay; assay type: functional
Target sequence in this assay (P37288 whole entry): as the sequence (P37288 whole entry, looked up) above

[12] = species on record: Homo sapiens; assay: Selectivity for human OTR receptor over human V2 receptor
[13] = biological target: T3, Vasopressin V2 receptor; assay: Agonist activity at V2 receptor (unknown origin) by cAMP accumulation assay; assay type: functional
[14] = biological target: T6, Vasopressin V1b receptor (Homo sapiens, UniProt P47901); assay: Binding affinity to V1B receptor (unknown origin)
T6 sequence (P47901 whole entry): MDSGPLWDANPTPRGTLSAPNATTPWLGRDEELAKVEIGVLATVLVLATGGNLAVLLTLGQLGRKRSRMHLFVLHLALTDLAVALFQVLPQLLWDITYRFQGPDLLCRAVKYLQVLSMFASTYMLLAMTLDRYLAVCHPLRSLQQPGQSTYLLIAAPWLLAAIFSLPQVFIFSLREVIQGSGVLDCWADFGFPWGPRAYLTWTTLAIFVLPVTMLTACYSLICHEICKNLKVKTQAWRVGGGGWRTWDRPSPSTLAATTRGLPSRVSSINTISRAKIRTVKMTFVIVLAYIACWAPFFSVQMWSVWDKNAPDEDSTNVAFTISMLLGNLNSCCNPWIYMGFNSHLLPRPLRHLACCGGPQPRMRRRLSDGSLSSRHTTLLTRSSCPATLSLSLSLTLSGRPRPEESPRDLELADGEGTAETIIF

[15] = biological target: T5, Vasopressin V1a receptor; assay: Antagonist activity at human V1A receptor expressed in CHO cells assessed as inhibition of AVP-induced myo-inositol 1-phosphate accumulation at 1 uM by IP-One assay relative to AVP; assay type: functional, cell-based
Target sequence in this assay (P37288 whole entry, looked up): as the sequence (P37288 whole entry, looked up) above

[16] = species on record: Homo sapiens; assay: Selectivity for human V1a receptor over human V2 receptor

T3 sequence (P30518 whole entry): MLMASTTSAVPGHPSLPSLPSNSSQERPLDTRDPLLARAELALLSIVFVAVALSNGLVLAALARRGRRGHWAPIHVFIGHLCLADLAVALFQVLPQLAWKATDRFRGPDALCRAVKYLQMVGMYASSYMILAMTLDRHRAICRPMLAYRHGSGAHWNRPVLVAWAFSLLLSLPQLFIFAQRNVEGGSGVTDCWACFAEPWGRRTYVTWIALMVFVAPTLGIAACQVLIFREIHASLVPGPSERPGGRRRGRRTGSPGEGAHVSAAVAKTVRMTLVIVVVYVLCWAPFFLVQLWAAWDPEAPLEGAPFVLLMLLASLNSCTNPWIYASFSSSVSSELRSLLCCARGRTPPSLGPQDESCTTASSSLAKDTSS

In the case of `Cc1nc2c([nH]1)-c1ccccc1N(C(=O)c1ccc(NC(=O)c3ccccc3-c3ccccc3)cc1)CC2` [CONIVAPTAN], the Ki [1] is reported as > 10000 nM.
Work on `COCc1nnc(N2CC(Oc3ccc(F)cc3Cl)C2)n1-c1ccc(OC)nc1` yielded an IC50 [2] of 63 nM, an IC50 [3] of 600 nM and an IC50 [4] of 2620 nM. It also gave an IC50 [5] of 1530 nM.
`Cc1ccn(-c2ccc(C(=O)N3Cc4cccn4Cc4ccccc43)c(Cl)c2)n1` showed a Ki [6] of 125 nM, a Ki [7] of 39.9 nM and an IC50 [8] of 55 nM. For the same compound, the Emax [9] was < 10%, the Ki [10] was 465 nM and the IC50 [11] was 1660 nM. For the same compound, the Selectivity ratio [12] was 4, the EC50 [13] was 0.7 nM and the Ki [14] was > 1000 nM. The inhibition [15] was 33% and the Selectivity ratio [16] was 6.9.
